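Briefly, cells in 96-well plates were exposed to five compound concentrations for 48 h, and endpoints were estimated by linear interpolation. Here, GI50 denotes the concentration required for 50% inhibition of growth. TGI: total growth inhibition.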
What was measured:
Test in all cases: growth of human tumour cells (NCI), 48 h
HS 578T breast = tested on: HS 578T breast
U251 CNS = tested on: U251 CNS
HL-60(TB) leukemia = tested on: HL-60(TB) leukemia
MALME-3M melanoma = tested on: MALME-3M melanoma
NCI-H226 lung = tested on: NCI-H226 lung
MOLT-4 leukemia = tested on: MOLT-4 leukemia
PC-3 prostate = tested on: PC-3 prostate
NCI-H23 lung = tested on: NCI-H23 lung
NCI/ADR-RES ovarian = tested on: NCI/ADR-RES ovarian
OVCAR-5 ovarian = tested on: OVCAR-5 ovarian
SF-295 CNS = tested on: SF-295 CNS
IGROV1 ovarian = tested on: IGROV1 ovarian
SK-MEL-28 melanoma = tested on: SK-MEL-28 melanoma
KM12 colon = tested on: KM12 colon
NCI-H460 lung = tested on: NCI-H460 lung
HCT-116 colon = tested on: HCT-116 colon
TK-10 renal = tested on: TK-10 renal
UACC-257 melanoma = tested on: UACC-257 melanoma
M14 melanoma = tested on: M14 melanoma
HOP-92 NSCLC = tested on: HOP-92 NSCLC
SK-OV-3 ovarian = tested on: SK-OV-3 ovarian
LOX IMVI melanoma = tested on: LOX IMVI melanoma
DU-145 prostate = tested on: DU-145 prostate
A549 NSCLC = tested on: A549 NSCLC
RPMI-8226 leukemia = tested on: RPMI-8226 leukemia
OVCAR-8 ovarian = tested on: OVCAR-8 ovarian
SF-539 CNS = tested on: SF-539 CNS
HT29 colon = tested on: HT29 colon
HOP-62 NSCLC = tested on: HOP-62 NSCLC
NCI-H522 lung = tested on: NCI-H522 lung
EKVX NSCLC = tested on: EKVX NSCLC
ACHN renal = tested on: ACHN renal
HCC-2998 colon = tested on: HCC-2998 colon
UO-31 renal = tested on: UO-31 renal
CCRF-CEM leukemia = tested on: CCRF-CEM leukemia
MDA-MB-435 = tested on: MDA-MB-435
MDA-MB-231 breast = tested on: MDA-MB-231 breast
HCT-15 colon = tested on: HCT-15 colon
SN12C renal = tested on: SN12C renal
SF-268 CNS = tested on: SF-268 CNS
OVCAR-3 ovarian = tested on: OVCAR-3 ovarian
CAKI-1 renal = tested on: CAKI-1 renal
K-562 leukemia = tested on: K-562 leukemia
UACC-62 melanoma = tested on: UACC-62 melanoma
SR leukemia = tested on: SR leukemia
A498 renal = tested on: A498 renal
786-0 renal = tested on: 786-0 renal
RXF 393 renal = tested on: RXF 393 renal
MCF7 breast = tested on: MCF7 breast
SW-620 colon = tested on: SW-620 colon
SNB-19 CNS = tested on: SNB-19 CNS
T-47D breast = tested on: T-47D breast
OVCAR-4 ovarian = tested on: OVCAR-4 ovarian
SK-MEL-5 melanoma = tested on: SK-MEL-5 melanoma
COLO 205 colon = tested on: COLO 205 colon
SNB-75 CNS = tested on: SNB-75 CNS
SK-MEL-2 melanoma = tested on: SK-MEL-2 melanoma
BT-549 breast = tested on: BT-549 breast

## COc1ccc(OC)c2c1C=C[C@H](C1(C)SCCS1)C2C(C)=O (some centres undefined)
HS 578T breast
  TGI: 45.6 µM
U251 CNS
  TGI: 73.2 µM
HL-60(TB) leukemia
  TGI: 41.3 µM
MALME-3M melanoma
  TGI: 89.8 µM
NCI-H226 lung
  TGI: 63.4 µM
MOLT-4 leukemia
  TGI: 60.6 µM
PC-3 prostate
  TGI: > 100 µM
NCI-H23 lung
  TGI: 71.6 µM
NCI/ADR-RES ovarian
  TGI: > 100 µM
OVCAR-5 ovarian
  TGI: 65.6 µM
SF-295 CNS
  TGI: 65.5 µM
IGROV1 ovarian
  TGI: > 100 µM
SK-MEL-28 melanoma
  TGI: > 100 µM
KM12 colon
  TGI: 99.5 µM
NCI-H460 lung
  TGI: 76.5 µM
HCT-116 colon
  TGI: 65.3 µM
TK-10 renal
  TGI: > 100 µM
UACC-257 melanoma
  TGI: > 100 µM
M14 melanoma
  TGI: > 100 µM
HOP-92 NSCLC
  TGI: > 100 µM
SK-OV-3 ovarian
  TGI: 70.9 µM
LOX IMVI melanoma
  TGI: 81.8 µM
DU-145 prostate
  TGI: 97.9 µM
A549 NSCLC
  TGI: > 100 µM
RPMI-8226 leukemia
  TGI: 58.6 µM
OVCAR-8 ovarian
  TGI: > 100 µM
SF-539 CNS
  TGI: 48.2 µM
HT29 colon
  TGI: 33.8 µM
HOP-62 NSCLC
  TGI: > 100 µM
NCI-H522 lung
  TGI: 41.5 µM
EKVX NSCLC
  TGI: > 100 µM
ACHN renal
  TGI: > 100 µM
HCC-2998 colon
  TGI: > 100 µM
UO-31 renal
  TGI: 59.7 µM
CCRF-CEM leukemia
  TGI: > 100 µM
MDA-MB-435
  TGI: > 100 µM
MDA-MB-231 breast
  TGI: > 100 µM
HCT-15 colon
  TGI: > 100 µM
SN12C renal
  TGI: > 100 µM
SF-268 CNS
  TGI: > 100 µM
OVCAR-3 ovarian
  TGI: 61.5 µM
CAKI-1 renal
  TGI: 90 µM
K-562 leukemia
  TGI: > 100 µM
UACC-62 melanoma
  TGI: > 100 µM
SR leukemia
  TGI: 59.2 µM
A498 renal
  TGI: 78.2 µM
786-0 renal
  TGI: > 100 µM
RXF 393 renal
  TGI: 92.3 µM
MCF7 breast
  TGI: > 100 µM
SW-620 colon
  TGI: > 100 µM
SNB-19 CNS
  TGI: 81.1 µM
T-47D breast
  TGI: > 100 µM
OVCAR-4 ovarian
  TGI: > 100 µM
SK-MEL-5 melanoma
  TGI: 47.1 µM

## Clc1ccccc1CN1COc2c(cc(Cl)c3cccnc23)C1
HS 578T breast
  TGI: 23.4 µM
U251 CNS
  TGI: 14.1 µM
HL-60(TB) leukemia
  TGI: 8.9 µM
MALME-3M melanoma
  TGI: 11.1 µM
NCI-H226 lung
  TGI: 4.09 µM
COLO 205 colon
  TGI: 43.2 µM
MOLT-4 leukemia
  TGI: 1.12 µM
PC-3 prostate
  TGI: 18.7 µM
NCI-H23 lung
  TGI: 13.2 µM
NCI/ADR-RES ovarian
  TGI: 1.74 µM
OVCAR-5 ovarian
  TGI: 15.1 µM
SF-295 CNS
  TGI: 16.6 µM
IGROV1 ovarian
  TGI: 23.7 µM
SK-MEL-28 melanoma
  TGI: 25.9 µM
KM12 colon
  TGI: 14.6 µM
NCI-H460 lung
  TGI: 27.4 µM
HCT-116 colon
  TGI: 15.4 µM
TK-10 renal
  TGI: 26.5 µM
UACC-257 melanoma
  TGI: 12.3 µM
M14 melanoma
  TGI: 21.7 µM
HOP-92 NSCLC
  TGI: 23 µM
SNB-75 CNS
  TGI: 18.8 µM
SK-OV-3 ovarian
  TGI: 21.2 µM
DU-145 prostate
  TGI: 21 µM
A549 NSCLC
  TGI: 13.6 µM
OVCAR-8 ovarian
  TGI: 13.9 µM
SF-539 CNS
  TGI: 10.9 µM
HT29 colon
  TGI: 36.6 µM
HOP-62 NSCLC
  TGI: 18.7 µM
NCI-H522 lung
  TGI: 15.7 µM
ACHN renal
  TGI: 13.4 µM
UO-31 renal
  TGI: 21.7 µM
MDA-MB-435
  TGI: 20.9 µM
MDA-MB-231 breast
  TGI: 9.33 µM
HCT-15 colon
  TGI: 10.9 µM
SN12C renal
  TGI: 0.494 µM
SF-268 CNS
  TGI: 46.5 µM
OVCAR-3 ovarian
  TGI: 26.4 µM
CAKI-1 renal
  TGI: 24 µM
SK-MEL-2 melanoma
  TGI: 26.1 µM
K-562 leukemia
  TGI: 11.9 µM
UACC-62 melanoma
  TGI: 3.8 µM
SR leukemia
  TGI: 4 µM
786-0 renal
  TGI: 18.9 µM
RXF 393 renal
  TGI: 39.6 µM
MCF7 breast
  TGI: 86.5 µM
SW-620 colon
  TGI: 21 µM
SNB-19 CNS
  TGI: 17.2 µM
T-47D breast
  TGI: > 100 µM
OVCAR-4 ovarian
  TGI: 14.2 µM
SK-MEL-5 melanoma
  TGI: 5.78 µM

## S=c1oc(CCCCCCCCc2nn(CNc3ccccc3)c(=S)o2)nn1CNc1ccccc1
U251 CNS
  TGI: > 100 µM
NCI-H226 lung
  TGI: > 100 µM
COLO 205 colon
  TGI: > 100 µM
MOLT-4 leukemia
  TGI: > 100 µM
PC-3 prostate
  TGI: > 100 µM
NCI-H23 lung
  TGI: > 100 µM
BT-549 breast
  TGI: > 100 µM
NCI/ADR-RES ovarian
  TGI: > 100 µM
OVCAR-5 ovarian
  TGI: > 100 µM
SF-295 CNS
  TGI: > 100 µM
SK-MEL-28 melanoma
  TGI: > 100 µM
KM12 colon
  TGI: > 100 µM
NCI-H460 lung
  TGI: > 100 µM
HCT-116 colon
  TGI: > 100 µM
TK-10 renal
  TGI: > 100 µM
UACC-257 melanoma
  TGI: > 100 µM
M14 melanoma
  TGI: > 100 µM
HOP-92 NSCLC
  TGI: > 100 µM
SNB-75 CNS
  TGI: > 100 µM
SK-OV-3 ovarian
  TGI: > 100 µM
DU-145 prostate
  TGI: > 100 µM
A549 NSCLC
  TGI: > 100 µM
RPMI-8226 leukemia
  TGI: > 100 µM
HT29 colon
  TGI: > 100 µM
HOP-62 NSCLC
  TGI: > 100 µM
NCI-H522 lung
  TGI: > 100 µM
EKVX NSCLC
  TGI: > 100 µM
ACHN renal
  TGI: > 100 µM
HCC-2998 colon
  TGI: > 100 µM
UO-31 renal
  TGI: > 100 µM
MDA-MB-435
  TGI: > 100 µM
MDA-MB-231 breast
  TGI: > 100 µM
HCT-15 colon
  TGI: > 100 µM
SN12C renal
  TGI: > 100 µM
SF-268 CNS
  TGI: > 100 µM
CAKI-1 renal
  TGI: > 100 µM
SK-MEL-2 melanoma
  TGI: > 100 µM
K-562 leukemia
  TGI: > 100 µM
UACC-62 melanoma
  TGI: > 100 µM
A498 renal
  TGI: > 100 µM
786-0 renal
  TGI: > 100 µM
MCF7 breast
  TGI: > 100 µM
SW-620 colon
  TGI: > 100 µM
SNB-19 CNS
  TGI: > 100 µM
OVCAR-4 ovarian
  TGI: > 100 µM
SK-MEL-5 melanoma
  TGI: > 100 µM

## NC(=O)c1ncn(CC2(COC(=O)c3ccccc3)CCC2)n1
BT-549 breast
  GI50: 82.1 µM
SNB-75 CNS
  GI50: 9.86 µM
  TGI: 92.5 µM

From PubChem BioAssay (NCI)
